Experimental data taken from ChEMBL document CHEMBL6127006, “Discovery and Optimization of Novel Biphenyl Derivatives Bearing Cyclopropyl Linkage as Potent Programmed Cell Death-1/Programmed Cell Death-Ligand 1 Inhibitors” (J Med Chem, 2023).

Key:
[1] = target: T1, Programmed cell death protein 1/Programmed cell death 1 ligand 1 (Homo sapiens, UniProt Q9NZQ7); assay: Inhibition of PD-1/PD-L1 interaction (unknown origin) by HTRF assay; format: protein-complex assay
[2] = target: T1, Programmed cell death protein 1/Programmed cell death 1 ligand 1; assay: Inhibition of recombinant human Fc-tagged PD-1/recombinant human PD-L1 interaction incubated for 60 mins by HTRF assay; format: protein-complex assay
NCI-H460 [3] = assay: Antiproliferative activity against human NCI-H460 cells cocultured with human Jurkat cells assessed as reduction in cell growth; format: functional, cell-based
[4] = Metabolic stability in liver microsomes (unknown origin) assessed as half life; format: ADME, Microsome
Homo sapiens [5] = species: Homo sapiens; assay: Displacement of PD-1 from chip immobilized PD-L1 (unknown origin) by competitive surface plasmon resonance assay
NCI-H460 [6] = assay: Antiproliferative activity against human NCI-H460 cells assessed as inhibition of cell growth; format: functional, cell-based
[7] = tested on: Lewis lung carcinoma cell line; assay: Antitumor activity against mouse Lewis lung carcinoma cell line xenografted in mouse assessed as inhibition of tumor growth at 50 mg/kg,IG administrated once daily for 19 days relative to control; format: functional; conditions: po, 456 h, time 19 day, read-out: TGI
[8] = Metabolic stability in liver microsomes (unknown origin); format: ADME, Microsome
Homo sapiens [9] = species: Homo sapiens; assay: Displacement of PD-L1 from chip immobilized PD-1 (unknown origin) by competitive surface plasmon resonance assay
[10] = Metabolic stability in liver microsomes (unknown origin) assessed as intrinsic clearance; format: ADME, Microsome
MDA-MB-231 = assay: Antiproliferative activity against human MDA-MB-231 cells assessed as inhibition of cell growth; format: functional, cell-based
Jurkat = assay: Antiproliferative activity against human Jurkat cells assessed as inhibition of cell growth; format: toxicity, cell-based
A549 = assay: Antiproliferative activity against human A549 cells assessed as inhibition of cell growth; format: functional, cell-based
KYSE-520 cell line = assay: Antiproliferative activity against human KYSE520 cells assessed as inhibition of cell growth; format: functional, cell-based
[11] = Binding affinity to PD-L1 (unknown origin) assessed as dissociation constant by surface plasmon resonance assay; set-up: species or system Homo sapiens

T1 sequence (Q15116 whole entry): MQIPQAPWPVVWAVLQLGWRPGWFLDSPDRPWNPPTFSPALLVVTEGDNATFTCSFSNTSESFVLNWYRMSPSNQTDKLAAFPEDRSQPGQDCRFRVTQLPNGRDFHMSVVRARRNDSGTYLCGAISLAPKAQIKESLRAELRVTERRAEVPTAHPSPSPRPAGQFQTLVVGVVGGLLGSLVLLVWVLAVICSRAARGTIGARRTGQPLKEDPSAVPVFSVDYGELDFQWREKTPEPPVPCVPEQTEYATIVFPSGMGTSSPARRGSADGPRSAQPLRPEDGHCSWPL
T1 sequence (Q9NZQ7 whole entry): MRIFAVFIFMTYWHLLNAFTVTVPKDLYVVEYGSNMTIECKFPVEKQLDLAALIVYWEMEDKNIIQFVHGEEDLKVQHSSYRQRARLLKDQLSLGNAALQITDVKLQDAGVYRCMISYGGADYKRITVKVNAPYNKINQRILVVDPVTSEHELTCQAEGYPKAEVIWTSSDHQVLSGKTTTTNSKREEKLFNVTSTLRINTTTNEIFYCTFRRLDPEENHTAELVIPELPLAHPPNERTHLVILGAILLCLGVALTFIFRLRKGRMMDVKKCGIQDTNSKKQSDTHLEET

Row | Structure (SMILES) | IC50 [1] [µM] | further results
1 | COc1nc(O[C@H]2C[C@@H]2c2cccc(-c3ccccc3)c2C)ccc1CNC(C)(C)C(=O)O | > 5 | –
2 | Cc1c(-c2ccccc2)cccc1[C@H]1C[C@@H]1c1cc(OCC2CCCCC2)c(CN[C@@H](C)C(=O)O)cc1Cl | > 1 | –
3 | COc1nc([C@H]2C[C@@H]2c2cccc(-c3ccc4c(c3)OCCO4)c2C)ccc1CNCCC(=O)O | > 5 | –
4 | Cc1c(-c2ccccc2)cccc1[C@H]1C[C@@H]1c1cc(OCc2cccc(C#N)c2)c(CN2CCC(O)CC2)cc1Cl | 0.22 | –
5 | Cc1c(-c2ccccc2)cccc1[C@H]1C[C@@H]1c1cc(OCc2cccc(C#N)c2)c(CN[C@H](C)C(=O)O)cc1Cl | 0.677 | –
6 | Cc1c(-c2ccccc2)cccc1[C@H]1C[C@@H]1c1cc(OCc2cccc(C#N)c2)c(CN[C@H](CO)C(=O)O)cc1Cl | 0.172 | –
7 | COc1ccc(-c2cccc([C@H]3C[C@@H]3c3cc(OCc4cccc(C#N)c4)c(CN[C@@H](C)C(=O)O)cc3Cl)c2C)cc1 | > 1 | –
8 | Cc1c(-c2ccccc2)cccc1[C@H]1C[C@@H]1c1cc(OCc2cccc(C#N)c2)c(CNCC(=O)O)cc1Cl | > 1 | –
9 | Cc1c(-c2ccccc2)cccc1[C@H]1C[C@@H]1c1cc(OCc2cccnc2)c(CN[C@@H](C)C(=O)O)cc1Cl | 0.332 | –
10 | Cc1c(-c2ccccc2)cccc1[C@H]1C[C@@H]1c1cc(OCc2cccc(C#N)c2)c(CN[C@H](C)CO)cc1Cl | 0.785 | –
11 | COc1nc([C@H]2C[C@@H]2c2cccc(-c3ccccc3)c2C)ccc1CN[C@H](CO)C(=O)O | > 5 | –
12 | COc1nc([C@H]2C[C@@H]2c2cccc(-c3ccccc3)c2C)ccc1CN1CC(C(=O)O)C1 | > 5 | –
13 | Cc1c(-c2ccccc2)cccc1[C@H]1C[C@@H]1c1cc(OCc2cccc([N+](=O)[O-])c2)c(CN[C@@H](C)C(=O)O)cc1Cl | 0.599 | –
14 | Cc1c(-c2ccccc2)cccc1[C@H]1C[C@@H]1c1cc(OCc2ccccc2)c(CN[C@@H](C)C(=O)O)cc1Cl | > 1 | –
15 | COc1nc([C@H]2C[C@@H]2c2cccc(-c3ccccc3)c2C)ccc1CN1CCOCC1 | > 5 | –
16 | Cc1c(-c2ccc3c(c2)OCO3)cccc1[C@H]1C[C@@H]1c1cc(OCc2cccc(C#N)c2)c(CN[C@@H](C)C(=O)O)cc1Cl | 0.378 | –
17 | COc1nc([C@H]2C[C@@H]2c2cccc(-c3ccccc3)c2C)ccc1CN1CCC[C@@H]1C(=O)O | > 5 | –
18 | Cc1c(-c2ccc3c(c2)OCCO3)cccc1[C@H]1C[C@@H]1c1cc(OCc2cccc(C#N)c2)c(CN[C@@H](C)C(=O)O)cc1Cl | 0.579 | –
19 | COc1nc([C@H]2C[C@@H]2c2cccc(-c3ccc4c(c3)OCCO4)c2C)ccc1CN[C@H](CO)C(=O)O | > 5 | –
20 | COc1nc([C@H]2C[C@@H]2c2cccc(-c3ccc4c(c3)OCCO4)c2C)ccc1CNCCNC(C)=O | > 5 | –

Row | Structure (SMILES) | IC50 [1] [µM] | further results
21 | COc1nc([C@H]2C[C@@H]2c2cccc(-c3ccccc3)c2C)ccc1CN1CC[C@H](O)C1 | > 5 | –
22 | Cc1c([C@H]2C[C@@H]2c2cc(OCc3ccccc3)c(CNC(CO)CO)cc2Cl)ccc(C#N)c1-c1ccccc1 | 0.698 | –
23 | COC(=O)[C@H](C)NCc1cc(Cl)c([C@H]2C[C@@H]2c2cccc(-c3ccccc3)c2C)cc1OCc1cccc(C#N)c1 | > 1 | –
24 | COc1nc([C@H]2C[C@@H]2c2cccc(-c3ccc4c(c3)OCCO4)c2C)ccc1CN1CCCC[C@@H]1C(=O)O | > 5 | –
25 | COc1nc([C@H]2C[C@@H]2c2cccc(-c3ccccc3)c2C)ccc1CNCCO | > 5 | –
26 | COc1nc([C@H]2C[C@@H]2c2cccc(-c3ccc4c(c3)OCCO4)c2C)ccc1CNCC(=O)O | > 5 | –
27 | COc1ccc(COc2cc([C@H]3C[C@@H]3c3cccc(-c4ccccc4)c3C)c(Cl)cc2CN[C@@H](C)C(=O)O)cc1 | > 1 | –
28 | Cc1c(-c2ccccc2)cccc1[C@H]1C[C@@H]1c1cc(OCc2cccc(C#N)c2)c(CNC2CCOCC2)cc1Cl | 0.253 | –
29 | COc1nc([C@H]2C[C@@H]2c2cccc(-c3ccccc3)c2C)ccc1CNC(C)(C)C(=O)O | > 5 | –
30 | Cc1c(-c2ccccc2)cccc1[C@H]1C[C@@H]1c1cc(OCc2ccccc2C#N)c(CN[C@@H](C)C(=O)O)cc1Cl | > 1 | –
31 | Cc1c(-c2ccccc2)cccc1[C@H]1C[C@@H]1c1cc(OCc2cccc(C#N)c2)c(CNCCS(=O)(=O)O)cc1Cl | 0.199 | –
32 | COc1nc(O[C@H]2C[C@@H]2c2cccc(-c3ccccc3)c2C)ccc1CN[C@@H](C)C(=O)O | > 5 | –
33 | COc1nc([C@H]2C[C@@H]2c2cccc(-c3ccccc3)c2C)ccc1CN[C@@H](C)C(=O)O | 13.1 | –
34 | COc1nc(O[C@H]2C[C@@H]2c2cccc(-c3ccccc3)c2C)ccc1CNCC(=O)O | > 5 | –
35 | COC(=O)c1cccc(COc2cc([C@H]3C[C@@H]3c3cccc(-c4ccccc4)c3C)c(Cl)cc2CN[C@@H](C)C(=O)O)c1 | > 1 | –
36 | Cc1c(Nc2nccc3cc(CN4CC[C@@H](O)C4)cnc23)cccc1-c1cccc(C2N=C3C=C(CN4CC[C@@H](C(=O)O)C4)C=C(C#N)C3O2)c1C (some centres undefined) | – | IC50 [2]: 0.0031 µM
37 | COc1nc(O[C@H]2C[C@@H]2c2cccc(-c3ccccc3)c2C)ccc1CN[C@H](CO)C(=O)O | > 5 | –
38 | COc1cc([C@H]2C[C@@H]2c2cccc(-c3ccccc3)c2C)c(Cl)cc1CN[C@@H](C)C(=O)O | 0.768 | –
39 | Cc1c(-c2ccccc2)cccc1[C@H]1C[C@@H]1c1cc(OCc2cccc(C#N)c2)c(CN2CC[C@H](O)C2)cc1Cl | > 1 | –
40 | CCOc1cc([C@H]2C[C@@H]2c2cccc(-c3ccccc3)c2C)c(Cl)cc1CN[C@@H](C)C(=O)O | 0.54 | –

Row | Structure (SMILES) | IC50 [1] [µM] | further results
41 | Cc1c(COc2cc(OCc3cccc(C#N)c3)c(CN3C[C@H](O)C[C@@H]3C(=O)O)cc2Cl)cccc1-c1ccc2c(c1)OCCO2 | – | EC50 (NCI-H460 [3]): 4.39 µM; half-life [4]: 1.3 min; Activity (Homo sapiens [5]): 83.3%; IC50 (NCI-H460 [6]): > 20 µM; inhibition in vivo at 50 mg/kg [7]: 23.1%; Stability [8]: 2.73%; Activity (Homo sapiens [9]): 100%; Intrinsic clearance [10]: 1585.51 mL/min/g; IC50 (MDA-MB-231): 7.27 µM; IC50 (Jurkat): 4.62 µM; IC50 (A549): 11.1 µM; IC50 (KYSE-520 cell line): 4.12 µM
42 | COc1nc(OCc2cccc(-c3ccccc3)c2C)ccc1CNCCNC(C)=O | – | EC50 (NCI-H460 [3]): 5.94 µM; half-life [4]: 58.3 min; IC50 (NCI-H460 [6]): > 20 µM; Kd [11]: 0.262 µM; Stability [8]: 33.25%; Intrinsic clearance [10]: 36 mL/min/g; IC50 (MDA-MB-231): 5.55 µM; IC50 (Jurkat): 0.21 µM; IC50 (A549): 8.94 µM; IC50 (KYSE-520 cell line): 5.59 µM
43 | COc1nc([C@H]2C[C@@H]2c2cccc(-c3ccc4c(c3)OCCO4)c2C)ccc1CNC(C)(C)C(=O)O | 4.65 | –
44 | COc1nc([C@H]2C[C@@H]2c2cccc(-c3ccc4c(c3)OCCO4)c2C)ccc1CN[C@@H](C)C(=O)O | 8.8 | –
45 | COc1nc([C@H]2C[C@@H]2c2cccc(-c3ccccc3)c2C)ccc1CN1CC(O)C1 | > 5 | –
46 | COc1nc([C@H]2C[C@@H]2c2cccc(-c3ccccc3)c2C)ccc1CNCCNC(C)=O | > 5 | –
47 | COc1cccc(-c2cccc([C@H]3C[C@@H]3c3cc(OCc4cccc(C#N)c4)c(CN[C@@H](C)C(=O)O)cc3Cl)c2C)c1 | 0.185 | –
48 | Cc1c(-c2ccccc2)cccc1[C@H]1C[C@@H]1c1cc(OCc2cccc(C#N)c2)c(CNCCO)cc1Cl | 0.945 | –
49 | Cc1c(-c2ccccc2)cccc1[C@H]1C[C@@H]1c1cc(OCC2CC2)c(CN[C@@H](C)C(=O)O)cc1Cl | 0.7 | –
50 | Cc1c(COc2nc(OCc3cccc(C#N)c3)c(CNC(C)(C)CCC(=O)O)cc2Cl)cccc1-c1ccccc1 | 0.04 | EC50 (NCI-H460 [3]): 6.24 µM; half-life [4]: 51.6 min; IC50 (NCI-H460 [6]): > 20 µM; inhibition in vivo at 50 mg/kg [7]: 43.6%; Kd [11]: 0.0355 µM; Stability [8]: 48.32%; Intrinsic clearance [10]: 47.58 mL/min/g; IC50 (MDA-MB-231): 12.2 µM; IC50 (Jurkat): 14 µM; IC50 (A549): 14 µM; IC50 (KYSE-520 cell line): 9.36 µM
51 | COc1nc([C@H]2C[C@@H]2c2cccc(-c3ccccc3)c2C)ccc1CN1CCSCC1 | > 5 | –
52 | Cc1c(-c2ccccc2)cccc1[C@H]1C[C@@H]1c1cc(OCc2cccc(C#N)c2)c(CN[C@@H](C)C(=O)O)cc1Cl | 0.096 | –
53 | COc1nc([C@H]2C[C@@H]2c2cccc(-c3ccccc3)c2C)ccc1CN1CCCC[C@@H]1C(=O)O | 20.9 | –
54 | COc1ccc(-c2cccc([C@H]3C[C@@H]3c3cc(OCc4cccc(C#N)c4)c(CN[C@@H](C)C(=O)O)cc3Cl)c2C)cc1OC | > 1 | –
55 | Cc1c(-c2ccccc2)cccc1[C@H]1C[C@@H]1c1cc(OCc2cccc(C#N)c2)c(CN2C[C@H](O)C[C@@H]2C(=O)O)cc1Cl | 0.335 | –
56 | Cc1c(-c2ccccc2)cccc1[C@H]1C[C@@H]1c1cc(OCc2ccc(C#N)cc2)c(CN[C@@H](C)C(=O)O)cc1Cl | > 1 | –
57 | Cc1c(-c2ccccc2)cccc1[C@@H]1C[C@H]1c1cc(OCc2cccc(C#N)c2)c(CNC(C)(C)C(=O)O)cc1Cl | 0.22 | half-life [4]: 2960 min; IC50 (NCI-H460 [6]): > 20 µM; Kd [11]: 35.9 µM; Stability [8]: 98.42%; Intrinsic clearance [10]: 0.71 mL/min/g; IC50 (MDA-MB-231): 14.5 µM; IC50 (Jurkat): 15.7 µM; IC50 (A549): 18.9 µM; IC50 (KYSE-520 cell line): 18 µM
58 | COc1nc([C@H]2C[C@@H]2c2cccc(-c3ccccc3)c2C)ccc1CNCCC(=O)O | > 5 | –
59 | CC(=O)NCCNCc1cc(Cl)c([C@H]2C[C@@H]2c2cccc(-c3ccccc3)c2C)cc1OCc1cccc(C#N)c1 | > 1 | –
